Test system: doxorubicin-induced aged C57BL6J mice
Test: Serum IL6 (ELISA) in doxorubicin-aged mice, Example 22-5, Table 34
Format: in vivo, mouse
Conditions: untreated aged = 100
Protocol: Eight-week-old male C57BL6J mice (KRIBB Laboratory Animal Resource Center) were acclimated to the experimental environment for one week. Afterwards, the anticancer agent doxorubicin was administered intraperitoneally at a concentration of 10 mg/kg, inducing aging for more than 10 days. The aging-induced mice were randomly assigned to experimental and control groups. LX-403 was mixed with a 10% ethanol solution of PEG400 and administered orally at a concentration of 25 mg/kg or intradermally at a concentration of 1 μM for 21 days. LX-1801 was mixed in distilled water with 4% DMSO, 30% PEG300, and 5% Tween80 and administered intradermally at a concentration of 0.4 μM daily for 21 days. LX-2001 was mixed in PBS and administered intradermally at a concentration of 2 μM daily for 21 days. LX-2002 was mixed in distilled water with 4% DMSO, 30% PEG300, and 5% Tween80 and administered intradermally at a concentration of 2 μM daily for 21 days. […] LX-2005 was mixed in distilled water with 4% DMSO, 30% PEG300, and 5% Tween80 and administered intradermally at a concentration of 90 μM daily for 21 days. […]
The amount of IL6, a senescence-associated secretory factor (SASP), was measured in serum collected from mice using the same method as in Example 7-5 of WO2023-085787 A1 using an enzyme-linked immunosorbent assay (ELISA Kit, R&D Systems).

O=C1C2CCN(CC2)C1CNC(=O)C(F)(F)F (stereo not shown) [LX-5701]
IL6 (%): 57 (±21.5) %

Reference: US20260306460A1, “COMPOSITION FOR REMOVING AND INHIBITING SENESCENT CELLS, AND USES THEREOF” (LIFECEUTIX CO., LTD., priority 2023, published 2026)
